In patent EP4592286A1, “MACROCYCLIC NITROGEN-CONTAINING CROWN ETHER COMPOUND AND USE THEREOF AS PROTEIN KINASE INHIBITOR” (Artivila Biopharma, priority 2022, dated 2024):

Biological target: T1, JAK2 (Mus musculus, UniProt Q62120)
T1 construct: endogenous in cells; host or cells: BAF3
Test: JAKs cell activity test: JAK2_pSTAT5 in IL-3-induced BAF3 cells
Assay type: cell-based
Conditions: pSTAT5, IL-3-induced BAF3 cells
Procedure: THP1 cells were collected by centrifugation, resuspended with 1×HBSS, counted and diluted to a certain cell density. They were inoculated in a 384-well plate and cultured in a saturated humidity incubator with 37 °C and 5% CO2. The compound (DMSO final volume of 0.3%) was added to THP1 cells (10 doses in duplicates) and cultured in a saturated humidity incubator with 37 °C and 5% CO2. hIL-4 was added to stimulate cells and cultured in a saturated humidity incubator with 37 °C and 5% CO2. The lysis solution was added and incubated at room temperature. According to the instructions of AlphaLISA SureFire Ultra p-STAT6 detection kit, the lysis solution was transferred to pSTAT6 detection system, and the ALPHA signal was read by PE Envision microplate reader. The inhibition rate Inh%=((DMSO-sample)/(DMSO-background))×100 was calculated. IC50 was obtained by fitting with GraphPad Prism non-linear regression equation, and y=Bottom+(Top-Bottom)/(1+10^((LogIC50-x)×hillslope)), where x was the concentration of the compound and y was the inhibition rate.
JAK2_pSTAT5 was tesed in IL-3-induced BAF3 cells according to the above steps, and JAK3_pSTAT5 was tested in IL-2-induced CTLL-2 cells (without serum stimulation) according to the above steps.

T1 sequence (Q62120 whole entry): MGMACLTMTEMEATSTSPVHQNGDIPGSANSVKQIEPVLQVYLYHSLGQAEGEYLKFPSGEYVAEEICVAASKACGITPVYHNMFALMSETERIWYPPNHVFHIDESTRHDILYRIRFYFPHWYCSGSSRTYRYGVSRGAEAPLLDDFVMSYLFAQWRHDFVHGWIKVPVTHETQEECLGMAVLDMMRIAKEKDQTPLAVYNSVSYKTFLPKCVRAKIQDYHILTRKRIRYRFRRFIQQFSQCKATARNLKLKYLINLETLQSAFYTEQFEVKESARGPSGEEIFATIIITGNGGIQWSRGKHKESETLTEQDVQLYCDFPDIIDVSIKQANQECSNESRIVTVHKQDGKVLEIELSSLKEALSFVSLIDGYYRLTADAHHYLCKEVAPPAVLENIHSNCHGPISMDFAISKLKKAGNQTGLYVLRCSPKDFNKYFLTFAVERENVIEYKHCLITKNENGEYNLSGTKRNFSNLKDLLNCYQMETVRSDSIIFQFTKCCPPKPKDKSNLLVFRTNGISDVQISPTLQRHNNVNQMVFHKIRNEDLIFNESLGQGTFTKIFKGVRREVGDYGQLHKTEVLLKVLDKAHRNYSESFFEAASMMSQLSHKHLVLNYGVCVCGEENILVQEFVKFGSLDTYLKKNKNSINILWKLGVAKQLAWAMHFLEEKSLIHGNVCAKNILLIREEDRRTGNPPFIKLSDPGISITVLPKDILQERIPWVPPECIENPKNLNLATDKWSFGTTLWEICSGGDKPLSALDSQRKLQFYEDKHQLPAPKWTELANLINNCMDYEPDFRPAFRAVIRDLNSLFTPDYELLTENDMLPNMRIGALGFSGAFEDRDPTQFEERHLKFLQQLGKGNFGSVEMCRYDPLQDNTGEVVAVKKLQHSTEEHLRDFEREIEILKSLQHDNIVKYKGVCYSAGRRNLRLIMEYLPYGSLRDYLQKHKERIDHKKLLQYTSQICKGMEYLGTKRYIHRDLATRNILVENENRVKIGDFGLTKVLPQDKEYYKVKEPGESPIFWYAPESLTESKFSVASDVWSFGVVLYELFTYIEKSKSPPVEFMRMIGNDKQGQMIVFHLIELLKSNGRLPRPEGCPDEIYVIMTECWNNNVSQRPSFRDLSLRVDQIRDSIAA

## CN1CCOCCOc2cc(Nc3nc(-c4cnn(C(CC#N)C5CCCC5)c4)c4cc[nH]c4n3)ccc2OCC1 (stereo not shown) [Example 26, 3-cyclopentyl-3-(4-(2-((7-methyl-2,3,6,7,8,9-hexahydro-5H-benzo[b][1,4,7]trioxa[10]azacyclododecan-13-yl)amino)-7H-pyrrolo[2,3-d]pytimidin-4-yl)-1H-pyrazol-1-yl)propionitrile]
  EC50: 500 to 5000 nM
